The values below come from ChEMBL document CHEMBL1201862, “PubChem BioAssay data set” (2004).

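In this assay, cells in 96-well plates receive the compound at five concentrations for 48 hours. Endpoints are linearly interpolated between the surrounding concentrations. Abbreviation: GI50, concentration required for 50% inhibition of growth.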 Activity calls are given as the source filed them. No stated cut-off is given here; in the data, active = GI50 up to about 1.1 µM and inactive = higher.

Among the test systems are COLO 205; NCI-H226; IGROV-1; SF-539; SR; NCI-H23; OVCAR-8; CCRF-CEM; UACC-257; SK-MEL-28; SK-MEL-5; SW-620; HCT-15; CAKI-1; NCI-H460; RPMI-8226; SNB-75; MCF7; HL-60; UO-31.
Holding throughout (assay): inhibition of tumour cell growth, NCI panel, 48 h

Consider `Cc1ccnc2nc(-c3cccc(Cl)c3)cc(O)c12`, for which the GI50 in the experiment with COLO 205 is 0.0598 µM (active); in the experiment with NCI-H226 it was 3.4 µM (inactive); in the experiment on IGROV-1, 0.185 µM (active); with SF-539 it was 0.0906 µM (active); in the experiment with SR, 0.0325 µM (active); with NCI-H23 it was 0.826 µM (active). Moreover, the GI50 with OVCAR-8 was 0.308 µM (active); in the experiment on CCRF-CEM it was 0.0553 µM (active); in the experiment with UACC-257, > 100 µM (inactive); in the experiment on SK-MEL-28, 1.9 µM (inactive); with SK-MEL-5, 0.038 µM (active); with SW-620, 0.0524 µM (active). Further, the GI50 is 0.0407 µM with HCT-15; 1.33 µM (inactive) in the experiment on CAKI-1; 0.0386 µM (active) in the experiment with NCI-H460; 0.0356 µM (active) in the experiment with RPMI-8226; > 10 µM (inactive) with SNB-75; 0.36 µM (active) in the experiment on MCF7. The GI50 in the experiment with HL-60 was 0.0115 µM (active).

In the case of `N#CC1=C(N)N(c2ccccc2)C(c2ccco2)C1(C#N)C#N` (stereo unspecified), the GI50 with COLO 205 was 19.4 µM (inactive); with NCI-H226, 18 µM (inactive); with IGROV-1 it was 19.2 µM (inactive); in the experiment with SF-539 it was 19.3 µM (inactive); with UO-31, 18.7 µM (inactive); in the experiment with SR, 20.5 µM (inactive). Further, the GI50 with NCI-H23 was 19.9 µM (inactive); with OVCAR-8, 23.3 µM (inactive); in the experiment with CCRF-CEM it was 14.3 µM (inactive); in the experiment with UACC-257, 18.4 µM (inactive); in the experiment with SK-MEL-28, 17.9 µM (inactive); in the experiment on SK-MEL-5, 17.4 µM (inactive). The GI50 in the experiment with SW-620 was 17.9 µM (inactive); in the experiment on HCT-15, 18.3 µM; with CAKI-1, 30.6 µM (inactive); in the experiment with RPMI-8226, 19.4 µM (inactive); in the experiment with SNB-75, 20 µM (inactive); with MCF7, 17.4 µM (inactive). The GI50 in the experiment on HL-60 was 17.5 µM (inactive).

Take `Nc1ccc2c(SCCSc3c4ccccc4nc4cc(N)ccc34)c3ccccc3nc2c1`: the GI50 was > 100 µM (inactive) in the experiment on COLO 205; > 100 µM (inactive) in the experiment with NCI-H226; > 100 µM (inactive) with IGROV-1; > 100 µM (inactive) in the experiment with SF-539; > 100 µM (inactive) in the experiment on UO-31; 23 µM (inactive) in the experiment on SR. In addition, the GI50 was 94.2 µM (inactive) in the experiment with NCI-H23; > 100 µM (inactive) in the experiment on OVCAR-8; 38.5 µM (inactive) with CCRF-CEM; > 100 µM (inactive) with UACC-257; > 100 µM (inactive) in the experiment with SK-MEL-28; > 100 µM (inactive) in the experiment on SK-MEL-5. For the same compound, the GI50 was > 100 µM (inactive) in the experiment with SW-620; above 100 µM in the experiment on HCT-15; > 100 µM (inactive) with CAKI-1; > 100 µM (inactive) in the experiment on NCI-H460; > 100 µM (inactive) with RPMI-8226; > 100 µM (inactive) with SNB-75. For the same compound, the GI50 in the experiment with MCF7 was > 100 µM (inactive).

For the compound `COC(=O)c1cc(=O)nc2sc3cccc(C)c3n12`, the GI50 with COLO 205 was 14.3 µM (inactive); in the experiment on NCI-H226, 18.7 µM (inactive); in the experiment on IGROV-1 it was 92 µM (inactive); in the experiment with SF-539, 34.1 µM (inactive); in the experiment with SR, 24 µM (inactive); in the experiment with NCI-H23, 55 µM (inactive). Also, the GI50 with OVCAR-8 was 20.9 µM (inactive); with CCRF-CEM, 20.2 µM (inactive); with UACC-257, 65 µM (inactive); in the experiment on SK-MEL-28 it was 62.8 µM (inactive); with SK-MEL-5, 60.7 µM (inactive); with SW-620, 30.3 µM (inactive). The GI50 with HCT-15 is 43 µM; with CAKI-1 it was 24.6 µM (inactive); in the experiment with NCI-H460 it was 68.7 µM (inactive); in the experiment with RPMI-8226 it was 22 µM (inactive); in the experiment on SNB-75, > 100 µM (inactive); in the experiment with MCF7, 52.5 µM (inactive). In addition, the GI50 in the experiment on HL-60 was 19 µM (inactive).

For the compound `COc1ccc(-c2nnc(-c3ccncc3)o2)cc1`, the GI50 in the experiment with COLO 205, in the experiment on NCI-H226, in the experiment with IGROV-1, in the experiment with SF-539, in the experiment with UO-31 and in the experiment on SR was > 100 µM (inactive) in each case. For the same compound, the GI50 in the experiment with NCI-H23, with OVCAR-8, in the experiment on CCRF-CEM, in the experiment on UACC-257, in the experiment on SK-MEL-28 and in the experiment with SK-MEL-5 was > 100 µM (inactive) in each case. Besides, the GI50 with HCT-15 is above 100 µM; in the experiment with CAKI-1 it was > 100 µM (inactive); in the experiment with RPMI-8226 it was > 100 µM (inactive); with SNB-75, > 100 µM (inactive); in the experiment with MCF7, > 100 µM (inactive); in the experiment with HL-60 it was > 100 µM (inactive).

With `CCOC(=O)C1CCC(=O)N1C(=O)c1ccc(Cl)cc1` (stereo unspecified), the GI50 with NCI-H226, with IGROV-1, in the experiment with SF-539, with UO-31, with SR and in the experiment on NCI-H23 was > 100 µM (inactive) in each case. Also, the GI50 in the experiment with OVCAR-8, in the experiment with CCRF-CEM, with UACC-257, in the experiment with SK-MEL-28, in the experiment on SK-MEL-5 and in the experiment on SW-620 was > 100 µM (inactive) each time. In addition, the GI50 in the experiment on HCT-15 was above 100 µM; in the experiment with CAKI-1, > 100 µM (inactive); in the experiment with NCI-H460, > 100 µM (inactive); with RPMI-8226, > 100 µM (inactive); in the experiment on SNB-75, > 100 µM (inactive); in the experiment on MCF7 it was > 100 µM (inactive). The GI50 with HL-60 is > 100 µM (inactive).

Turning to `CC(=O)NNC1=NN(C(C)=O)C2(S1)C(=O)Nc1ccccc12` (stereo unspecified), the GI50 in the experiment on NCI-H226, in the experiment on IGROV-1, with SF-539, in the experiment with UO-31, with SR and in the experiment on NCI-H23 was > 100 µM (inactive) each time. The GI50 with OVCAR-8 is > 100 µM (inactive); in the experiment on CCRF-CEM, > 100 µM (inactive); in the experiment with UACC-257 it was > 10 µM (inactive); with SK-MEL-28 it was > 100 µM (inactive); in the experiment on SK-MEL-5, > 100 µM (inactive); in the experiment on SW-620 it was > 100 µM (inactive). The GI50 in the experiment with HCT-15 was above 100 µM; in the experiment on CAKI-1, > 100 µM (inactive); in the experiment on NCI-H460 it was > 100 µM (inactive); in the experiment on RPMI-8226, > 100 µM (inactive); in the experiment with SNB-75, 65.8 µM (inactive); in the experiment with MCF7 it was > 100 µM (inactive). For the same compound, the GI50 in the experiment with HL-60 is 97.5 µM (inactive).

For `Cc1ccc(NC(=S)C#N)cc1Cl`, the GI50 with COLO 205 was 20.9 µM (inactive); with NCI-H226 it was 24.3 µM (inactive); in the experiment on IGROV-1, 17.1 µM (inactive); in the experiment on SF-539, 24.2 µM (inactive); with SR, 27 µM (inactive); in the experiment with NCI-H23, 33.8 µM (inactive). For the same compound, the GI50 was 35.7 µM (inactive) in the experiment on OVCAR-8; 25.5 µM (inactive) with CCRF-CEM; 46.3 µM (inactive) with UACC-257; 41.2 µM (inactive) in the experiment with SK-MEL-28; 24 µM (inactive) in the experiment on SK-MEL-5; 48.8 µM (inactive) with SW-620. Besides, the GI50 in the experiment with HCT-15 is 23.3 µM; in the experiment with CAKI-1 it was 41.3 µM (inactive); in the experiment on RPMI-8226 it was 6.79 µM (inactive); with SNB-75, 21.5 µM (inactive); in the experiment with MCF7 it was 56.2 µM (inactive).

For `CC(C)(/N=N/C(C)(C)C(=N)N)C(=N)N`, the GI50 with COLO 205, with NCI-H226, in the experiment on IGROV-1, in the experiment with SF-539, in the experiment on UO-31 and in the experiment with SR was > 100 µM (inactive) each time. Further, the GI50 in the experiment with NCI-H23, in the experiment on OVCAR-8, in the experiment with UACC-257, with SK-MEL-28, with SK-MEL-5 and in the experiment with SW-620 was > 100 µM (inactive) throughout. The GI50 in the experiment with HCT-15 was above 100 µM; in the experiment with CAKI-1, > 100 µM (inactive); in the experiment on NCI-H460, > 100 µM (inactive); in the experiment on RPMI-8226, > 100 µM (inactive); in the experiment on SNB-75, > 100 µM (inactive); in the experiment on MCF7, > 100 µM (inactive). Moreover, in the experiment with HL-60, the GI50 is > 100 µM (inactive).

As for `CC(=O)c1ccc(N2CCN(C3=CC(=O)c4c(O)ccc(O)c4C3=O)CC2)cc1`, the GI50 in the experiment with COLO 205 is 35.5 µM (inactive); with IGROV-1 it was 45.9 µM (inactive); in the experiment on SF-539, > 100 µM (inactive); with UO-31, 4.42 µM (inactive); with SR, 22.5 µM (inactive); in the experiment on NCI-H23 it was 34 µM (inactive). In addition, the GI50 with OVCAR-8 was 13.1 µM (inactive); in the experiment with CCRF-CEM, 15.2 µM (inactive); in the experiment on UACC-257, > 100 µM (inactive); in the experiment with SK-MEL-28 it was > 100 µM (inactive); in the experiment on SK-MEL-5 it was > 10 µM (inactive); in the experiment with SW-620 it was 35.6 µM (inactive). The GI50 in the experiment with HCT-15 was 5.41 µM; in the experiment with CAKI-1 it was > 100 µM (inactive); in the experiment on NCI-H460, 48.5 µM (inactive); with RPMI-8226 it was > 100 µM (inactive); with SNB-75, 24.2 µM (inactive); in the experiment with MCF7, 35.9 µM (inactive). The GI50 in the experiment with HL-60 was 10.4 µM (inactive).

As to `COc1ccc2[nH]c(Cl)c(/C=C3/C(=O)N(c4ccccc4)c4ccccc43)c2c1`, the GI50 in the experiment on COLO 205 was 2.18 µM (inactive); in the experiment on IGROV-1, 4.84 µM (inactive); with SF-539 it was 3.03 µM (inactive); with UO-31, 7.59 µM (inactive); with SR, 2.65 µM (inactive); in the experiment on NCI-H23, 4.06 µM (inactive). In addition, the GI50 is 6.44 µM (inactive) with OVCAR-8; 2.96 µM (inactive) in the experiment on CCRF-CEM; 7.13 µM (inactive) in the experiment on UACC-257; 8.49 µM (inactive) with SK-MEL-28; 2.28 µM (inactive) with SK-MEL-5; 3.78 µM (inactive) in the experiment with SW-620. For the same compound, the GI50 in the experiment with HCT-15 is 2.58 µM; in the experiment with CAKI-1 it was 10.6 µM (inactive); in the experiment with NCI-H460 it was 3.55 µM (inactive); in the experiment with RPMI-8226, 2.82 µM (inactive); in the experiment with SNB-75, 12.3 µM (inactive); in the experiment on MCF7, 0.506 µM (active). The GI50 in the experiment with HL-60 was 2.33 µM (inactive).
